# Assay results taken from patent EP4342890A1, “PLATFORM AND SCAFFOLD FOR FAP TARGETING AGENTS” (Erasmus University Rotterdam Medical Center, priority 2022, dated 2024).
# Experiments:
# FAP = biological target: T1, FAP (Homo sapiens, UniProt Q12884); assay: Competitive binding assay against [111In]In-FAPI-46 in HT-1080.hFAP cells; set-up: expressed in transfected cells; host or cells: HT-1080.hFAP cells; details: competition with [111In]In-FAPI-46 in HT-1080.hFAP cells, 37 °C, 1 h; unit inferred
# T1 sequence (Q12884 1-760): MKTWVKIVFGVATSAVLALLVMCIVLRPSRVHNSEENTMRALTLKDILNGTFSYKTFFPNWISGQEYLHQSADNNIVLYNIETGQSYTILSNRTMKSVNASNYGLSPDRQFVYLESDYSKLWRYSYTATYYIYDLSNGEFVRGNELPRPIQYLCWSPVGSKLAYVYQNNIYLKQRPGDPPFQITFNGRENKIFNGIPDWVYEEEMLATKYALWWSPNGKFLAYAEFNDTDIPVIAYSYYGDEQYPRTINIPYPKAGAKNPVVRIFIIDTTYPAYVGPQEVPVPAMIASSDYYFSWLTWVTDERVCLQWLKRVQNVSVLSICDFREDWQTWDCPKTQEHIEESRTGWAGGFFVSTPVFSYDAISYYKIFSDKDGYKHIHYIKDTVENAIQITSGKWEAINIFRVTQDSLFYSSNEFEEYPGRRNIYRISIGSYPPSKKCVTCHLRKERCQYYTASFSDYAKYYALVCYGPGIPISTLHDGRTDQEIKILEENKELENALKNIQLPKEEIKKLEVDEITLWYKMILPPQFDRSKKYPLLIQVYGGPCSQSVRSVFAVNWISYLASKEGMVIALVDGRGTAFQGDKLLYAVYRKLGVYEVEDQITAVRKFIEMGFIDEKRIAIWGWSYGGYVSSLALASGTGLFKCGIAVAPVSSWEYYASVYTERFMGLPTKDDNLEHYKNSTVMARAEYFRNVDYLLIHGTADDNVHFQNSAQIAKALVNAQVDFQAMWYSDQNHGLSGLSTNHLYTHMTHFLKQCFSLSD
# Method: The U-87 MG glioblastoma was cultured at 37 °C and 5% CO2 in Dulbecco's Modified Eagle Medium (DMEM) supplemented with 10 % (v/v) fetal calf serum. HT-1080.hFAP cells were kept in culture in DMEM medium supplemented with fetal bovine serum (10%, FBS) and antibiotic antimycotic (1%, AA) at 37 °C and 5% CO2. For passaging, cells were detached using Trypsin-EDTA 0.05% when reaching 90% confluence and re-seeded at a dilution of 1:4.
# Competition binding experiments were conducted by incubation of the [^111In]In-FAPI-46 radioligand with increasing concentrations of eFAP compound in HT-1080.hFAP cells at 37 °C for 1 h. Cells were then washed three times with binding buffer and lysed. The cell-associated radioactivity was measured in a γ-counter. The IC50 values were calculated by fitting the data by non-linear regression using GraphPad Prism.
# HT-1080.hFAP tumor = assay: Biodistribution study in HT-1080.hFAP tumor bearing mice; type: in vivo; details: indium-111 labelled
# From the text: Six-week-old male Balb/c nu/nu-specific and opportunistic pathogen-tree (SOPF) mice were housed in individually ventilated cages, with 4 mice per cage. Upon arrival, mice were acclimated for 1 week, with access to food and water ad libitum. Mice were subcutaneously inoculated on the right shoulder with U-87 or HT-1080.hFAP cells (1 × 10^6 cells). Xenografts were allowed to grow until they reached an appropriate size at the start of the studies. All animal experiments were approved by the Animal Welfare Committee of the Erasmus MC and were conducted in agreement with institutional guidelines (license number: AVD101002017867).
# Biodistribution studies were performed to determine tumor and organ uptake of the radiolabeled eFAP compounds. Animals (n = 4 for each time point and each compound) were injected intravenously with an average of 100 kBq/0.5 nmol at t=0. At 3 selected time points (1, 4 and 24 h) p.i. blood was collected via cardiac puncture under isoflurane/O2 anesthesia, after which the mice were sacrificed. The tumor and organs of interest (prostate, pancreas, spleen, gall bladder, liver, stomach, small intestine, coecum, colon, adrenals, kidney, lung, heart, salivary glands, muscle, bone, brain were excised, washed in PBS and blotted dry. The blood, tumor, and relevant organs were weighed and measured in a γ-counter. To determine the total injected radioactivity per animal, calibration curve with indium-111 and lutetium-177 were determined. The percentage of injected dose per gram (% ID/g) was determined for each tissue sample and corrected for both the injected volume and % ID present at the injection site (the tail).
# Comparison of the biodistribution in selected organs of [^111In]In-FAPI-46 and [^111In]In-eFAP-6 in HT-1080.hFAP tumor bearing mice are given in Figure 8.
# [1] = intravenous, HT-1080.hFAP tumor bearing mice
structure (smiles),measurement,setting,value
"N#C[C@@H]1CC(F)(F)CN1C(=O)CNC(=O)c1ccnc2c(OCCCNC(=O)CN3CCN(CC(=O)O)CCN(CC(=O)O)CCN(CC(=O)O)CC3)cccc12 [eFAP-6, (S)-2,2',2""-(10-(2-((3-((4-((2-(2-Cyano-4,4-difluoropyrrolidin-1-yl)-2-oxoethyl)carbamoyl)quinolin-8-yl)oxy)propyl)amino)-2-oxoethyl)-1,4,7,10-tetraazacyclododecane-1,4,7-triyl)triacetic acid]",IC50,FAP,0.66 nM
same,tumor targeting performance,HT-1080.hFAP tumor; compared with the clinical reference,comparable with that of FAPI-46
same,background uptake in healthy organs,HT-1080.hFAP tumor; [1],low background uptake in healthy organs
same,tumor uptake,HT-1080.hFAP tumor; [1],high and rapid tumor uptake
same,clearance from the body,"HT-1080.hFAP tumor; intravenous, mice",rapid clearance from the body
